In article PMC8842277, “Highly Antiproliferative Latonduine and Indolo[2,3-c]quinoline Derivatives: Complex Formation with Copper(II) Markedly Changes the Kinase Inhibitory Profile” (Journal of Medicinal Chemistry, 2022):

Experiments:
[1] = Thermodynamic solubility, UV–vis of saturated solutions
Method: The concentration of the compounds was determined by UV–vis spectrophotometry using stock solutions of the compounds with a known concentration dissolved in pure DMSO and 50% (v/v) DMSO/buffered aqueous solution for the calibration.

[2] = system: HCT-116 isogenic p53-knock-out subline; assay: MTT assay, 96 h; assay type: cell-based, human; details: read-out: IC50 HCT-116p53ko, mean
Text: The oncosuppressor protein p53 controls the cellular response to DNA strand breaks induced by cytotoxic drugs or by radiation.[58] The p53 protein may enhance cell chemosensitivity by promoting apoptosis via different mechanisms including activation of proapoptotic genes such as bax and repression of antiapoptotic genes such as bcl-2 or in contrast increase chemoresistance by promoting p21-mediated and p21-independent growth arrest and DNA repair and by activation of antiapoptotic genes such as bcl-x. There is strong evidence that the modulation of drug sensitivity by p53 may be both drug- and cell type-specific.[59] […] Accordingly, essential differences in chemosensitivity were observed between cells with wild-type p53 gene and cells with knocked out p53 gene by homologous recombination.[60]
Human colonic adenocarcinoma cell lines Colo 205 doxorubicin-sensitive (ATCC-CCL-222) and Colo 320/MDR-LRP multidrug resistant over-expressing ABCB1 (MDR1)-LRP (ATCC-CCL-220.1) were purchased from LGC Promochem, Teddington, UK. The cells were cultured in an RPMI 1640 medium supplemented with 10% heat-inactivated fetal bovine serum, 2 mM L-glutamine, 1 mM Na-pyruvate, and 10 mM HEPES. The semi-adherent human colon cancer cells were detached with Trypsin-Versene (EDTA) solution for 5 min at 37 °C. An MRC-5 human embryonal lung fibroblast cell line (ATCC CCL-171) was purchased from LGC Promochem, Teddington, UK. The cells were cultured in Eagle’s minimal essential medium (EMEM, containing 4.5 g L^–1 glucose) supplemented with a non-essential amino acid mixture, a selection of vitamins, and 10% heat-inactivated fetal bovine serum. The HCT-116 colon carcinoma cells and isogenic p53-knock-out subline were a gift of Prof. Bert Vogelstein from The Johns Hopkins Oncology Center. Cells were cultured in McCoy’s 5A medium supplemented with 10% heat-inactivated fetal bovine serum and 4 mM L-glutamine. All cell lines were incubated at 37 °C, in a 5% CO2, 95% air atmosphere.
MRC-5 non-cancerous human embryonic lung fibroblast and human colonic adeno-carcinoma cell lines (doxorubicin-sensitive Colo 205 and multidrug resistant Colo 320 colonic adenocarcinoma cells) were used to determine the effect of compounds on cell growth. The effects of increasing concentrations of compounds on cell growth were tested in 96-well flat-bottomed microtiter plates. The compounds were dissolved in DMSO and stock solutions of 10 mM were prepared. These were further diluted in the appropriate cell culture medium by twofold serial dilution starting from 100 or 10 μM for the compounds. The adherent human embryonal lung fibroblast cells were cultured in 96-well flat-bottomed microtiter plates using EMEM supplemented with 10% heat-inactivated fetal bovine serum. The density of the cells was adjusted to 1 × 10^4 cells in 100 μL per well, the cells were seeded for 24 h at 37 °C, 5% CO2, then the medium was removed from the plates containing the cells, and the dilutions of compounds previously made in a separate plate were added to the cells in 200 μL. In the case of the colonic adenocarcinoma cells, the twofold serial dilutions of compounds were prepared in 100 μL of RPMI 1640, horizontally. The semi-adherent colonic adenocarcinoma cells were treated with Trypsin-Versene (EDTA) solution. They were adjusted to a density of 1 × 10^4 cells in 100 μL of RPMI 1640 medium and were added to each well, with the exception of the medium control wells. […]

CaMK-1 = CaMK-1 (Homo sapiens, UniProt Q14012); assay: Kinase panel screen and IC50; assay type: biochemical
Text: (§1) Figure 7 (see also Table S4) summarizes the results of this assay as a histogram plotting the percentage of the remaining enzyme activity (x-axis) as a function of added lead compound (HL^8: blue trace, 8: red trace) for each of the 50 enzymes assayed (y-axis). […] Thus, the coordination to copper(II) completely changes the kinase inhibition profile of HL^8.
(§2) Figure 7 Screening of HL^8 and 8 against 50 enzymes: histogram with % remaining activity on the x-axis plotted against the compound identifier (blue trace: HL^8 and red trace: 8) and enzyme identifier on the […]. The screen was carried out at a compound concentration of 10 μM, an enzyme concentration of 50 nM, and an ATP concentration of 100 μM.
(§3) Both compounds were screened against the respective enzymes, and IC50 values were determined.
(§4) All kinase assays were carried out using Multidrop 384’s at room temperature in a total assay volume of 25.5 μL. To plates containing 0.5 μL of HL^8 and 8, DMSO control or acid blank […], 15 μL of an enzyme mix containing enzyme […], and excess peptide/protein substrate in buffer was added. Compounds were pre-incubated in the presence of the enzyme and peptide/protein substrate for 5 min before initiation of the reaction by addition of 10 μL of ATP (final concentration selected for each kinase at 5, 20, or 50 μM). Assays were carried out for 30 min at room temperature before termination by the addition of 5 μL of orthophosphoric acid. The assay plates were then harvested onto P81 Unifilter Plates by a PerkinElmer Harvester and air dried. The dry Unifilter plates were then sealed on the addition of MicroScint O and were counted in PerkinElmer Topcount scintillation counters.
(§5) IC50 values were determined by the International Centre for Kinase Profiling at the University of Dundee according to standard protocols published elsewhere.[109],[110]

GSK3β = GSK3β (Homo sapiens, UniProt P49841); assay: Kinase panel screen and IC50; assay type: biochemical
Text: as §1, §2, §3, §4, §5

MSK1 = MSK1 (Homo sapiens, UniProt O75582); assay: Kinase panel screen and IC50; assay type: biochemical
Text: as §1, §2, §3, §4, §5

PIM1 = PIM1 (Homo sapiens, UniProt P11309); assay: Kinase panel screen and IC50; assay type: biochemical
Text: as §1, §2, §3, §4, §5

PKA = PKA (Homo sapiens, UniProt P17612); assay: Kinase panel screen and IC50; assay type: biochemical
Text: as §1, §2, §3, §4, §5

SGK-1 = SGK-1 (Homo sapiens, UniProt O00141); assay: Kinase panel screen and IC50; assay type: biochemical
Text: as §1, §2, §3, §4, §5

Chain of SGK-1 (O00141 whole entry): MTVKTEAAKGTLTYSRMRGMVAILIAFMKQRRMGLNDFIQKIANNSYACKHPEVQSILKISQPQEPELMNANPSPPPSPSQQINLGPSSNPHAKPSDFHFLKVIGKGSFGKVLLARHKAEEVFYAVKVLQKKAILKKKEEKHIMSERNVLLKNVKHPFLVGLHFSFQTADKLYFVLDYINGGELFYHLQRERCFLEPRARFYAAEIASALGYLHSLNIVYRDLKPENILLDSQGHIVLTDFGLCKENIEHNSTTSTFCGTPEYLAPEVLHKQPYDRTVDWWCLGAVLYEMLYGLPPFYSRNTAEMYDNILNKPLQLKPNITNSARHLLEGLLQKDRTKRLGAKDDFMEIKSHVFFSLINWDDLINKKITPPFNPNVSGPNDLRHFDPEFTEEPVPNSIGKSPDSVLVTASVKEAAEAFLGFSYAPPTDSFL
Chain of GSK3β (P49841 whole entry): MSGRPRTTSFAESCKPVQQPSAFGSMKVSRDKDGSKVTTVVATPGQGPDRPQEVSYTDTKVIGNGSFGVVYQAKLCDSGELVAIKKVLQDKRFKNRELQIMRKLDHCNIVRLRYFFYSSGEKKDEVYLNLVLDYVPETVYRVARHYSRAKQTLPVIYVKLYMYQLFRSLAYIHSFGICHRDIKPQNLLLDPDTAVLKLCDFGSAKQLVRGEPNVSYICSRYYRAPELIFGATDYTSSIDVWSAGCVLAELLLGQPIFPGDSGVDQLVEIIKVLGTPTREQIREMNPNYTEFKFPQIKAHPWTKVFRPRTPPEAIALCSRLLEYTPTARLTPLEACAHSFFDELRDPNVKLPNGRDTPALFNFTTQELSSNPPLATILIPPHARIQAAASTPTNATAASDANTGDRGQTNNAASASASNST
Chain of MSK1 (O75582 whole entry): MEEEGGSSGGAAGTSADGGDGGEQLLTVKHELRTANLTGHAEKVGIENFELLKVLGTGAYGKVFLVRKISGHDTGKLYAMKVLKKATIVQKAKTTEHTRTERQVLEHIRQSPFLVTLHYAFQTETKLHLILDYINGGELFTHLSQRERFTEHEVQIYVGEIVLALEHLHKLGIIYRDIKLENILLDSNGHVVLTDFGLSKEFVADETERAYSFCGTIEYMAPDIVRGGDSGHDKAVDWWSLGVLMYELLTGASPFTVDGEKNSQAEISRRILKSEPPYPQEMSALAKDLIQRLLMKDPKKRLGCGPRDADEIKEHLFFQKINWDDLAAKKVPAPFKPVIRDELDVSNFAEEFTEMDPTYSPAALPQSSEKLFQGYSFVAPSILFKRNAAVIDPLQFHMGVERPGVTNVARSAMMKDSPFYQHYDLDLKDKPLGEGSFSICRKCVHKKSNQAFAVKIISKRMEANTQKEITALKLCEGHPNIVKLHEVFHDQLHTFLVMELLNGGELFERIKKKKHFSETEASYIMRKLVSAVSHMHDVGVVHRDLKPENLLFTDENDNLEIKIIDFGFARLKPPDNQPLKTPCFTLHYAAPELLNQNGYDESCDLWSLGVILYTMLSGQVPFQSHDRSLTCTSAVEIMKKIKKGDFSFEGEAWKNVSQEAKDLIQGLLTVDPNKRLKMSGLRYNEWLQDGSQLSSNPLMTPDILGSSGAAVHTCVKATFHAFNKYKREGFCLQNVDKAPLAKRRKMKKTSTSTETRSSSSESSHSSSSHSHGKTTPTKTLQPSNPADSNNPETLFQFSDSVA
Chain of PIM1 (P11309 whole entry): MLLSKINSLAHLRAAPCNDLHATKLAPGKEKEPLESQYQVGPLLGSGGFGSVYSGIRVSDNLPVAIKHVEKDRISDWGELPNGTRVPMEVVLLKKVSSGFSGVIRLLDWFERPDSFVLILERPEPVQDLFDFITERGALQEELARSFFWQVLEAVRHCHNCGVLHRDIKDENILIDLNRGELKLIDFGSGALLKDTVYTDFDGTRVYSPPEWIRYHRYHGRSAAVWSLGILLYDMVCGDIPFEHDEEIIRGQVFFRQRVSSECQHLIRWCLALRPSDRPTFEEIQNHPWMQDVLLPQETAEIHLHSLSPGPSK

**Q.** With `CC(=NNc1nc2ccccc2c2c1[nH]c1ccc(Br)cc12)c1ccc(CN2CCOCC2)cn1.[Cl][Cu][Cl]` [compound 8, CuCl2(HL^8)·H2O] as the molecule, how does the “Thermodynamic solubility (S)” value ([1]; pH 5) read?
**A.** The value was 34.3 µM.

**Q.** And the “Thermodynamic solubility (S)” value ([1]; pH 7.4)?
**A.** Its value is 10.4 µM.

**Q.** And the IC50 [2]?
**A.** The IC50 was 41 nM.

**Q.** And the “% remaining activity” value (CaMK-1; CaMK-1, 10 µM compound)?
**A.** The value was 9%.

**Q.** What about the IC50 (CaMK-1; read-out: IC50 against CaMK-1) of the same molecule?
**A.** The IC50 was 750 nM.

**Q.** And the “% remaining activity” value (GSK3β; GSK3β, 10 µM compound)?
**A.** Its value is 32%.

**Q.** And the IC50 (GSK3β; read-out: IC50 against GSK3β)?
**A.** Its IC50 is 1640 nM.

**Q.** And the “% remaining activity” value (MSK1; MSK1, 10 µM compound)?
**A.** The value was 17%.

**Q.** And the IC50 (MSK1; read-out: IC50 against MSK1)?
**A.** Its IC50 is 2970 nM.

**Q.** What about the “IC50 against PIM-1” value (PIM1) of the same molecule?
**A.** The value was “did not register binding”.

**Q.** And the “% remaining activity” value (PIM1; PIM1, 10 µM compound)?
**A.** Its value is 72%.

**Q.** And the “% remaining activity” value (PKA; PKA, 10 µM compound)?
**A.** Its value is 10%.

**Q.** What about the IC50 (PKA; read-out: IC50 against PKA) of the same molecule?
**A.** The IC50 was 6690 nM.

**Q.** And the “% remaining activity” value (SGK-1; SGK-1, 10 µM compound)?
**A.** The value was 5%.

**Q.** And the IC50 (SGK-1; read-out: IC50 against SGK-1)?
**A.** Its IC50 is 8450 nM.
